# Laboratory results reported in patent US20250230188A1, “METAGENOME-GUIDED BIOSYNTHESIS AND COMPOUNDS AND METHODS OF USE THEREOF” (The Rockefeller University, priority 2022, published 2025).
# Entries after “also recorded” stand apart in the source; their conditions may differ. Read-outs that look alike come from different tables or passages of the source.
# What was measured:
# [1] = test system: E. cloacae 13047; experiment: Syn-BNP MIC against ESKAPE pathogens: E. cloacae; type: cell-based, Enterobacter cloacae; conditions: E. cloacae 13047, Gram-negative
# Method: (§1) All syn-BNPs, as well as the parent antibiotic albicidin were assayed for antimicrobial activity against the ESKAPE pathogens (Enterococcus faecium, Staphylococcus aureus, Klebsiella pneumoniae, Acinetobacter baumannii, Pseudomonas aeruginosa, and Enterobacter species), which are a collection of bacteria most commonly associated with antibacterial resistant nosocomial infections.
# [2] = test system: P. aeruginosa; experiment: Syn-BNP MIC against ESKAPE pathogens: P. aeruginosa; type: cell-based, Pseudomonas aeruginosa; conditions: Gram-negative
# Method: as §1
# [3] = test system: E. coli-BL21 (pET28c); type: cell-based, Escherichia coli; conditions: empty vector
# Excerpt: (§2) As circumventing common antibiotic resistance mechanisms was likely to play a key role in the natural selection of antibiotic congeners, the present studies investigated whether some of the congeners evolved to evade AlbD-mediated cleavage. To determine the susceptibility of the herein described BGC-inspired analogs to AlbD encoded resistance, the MIC of each syn-BNP against E. coli engineered to express AlbD was compared to that of E. coli containing an empty expression vector.
# [4] = test system: E. coli-BL21 (pET28c-AlbD); type: cell-based, Escherichia coli; conditions: for Fold increase in MIC: AlbD expressing strain versus empty vector strain; for MIC: E. coli-BL21 (pET28c-AlbD); for susceptibility to AlbD encoded resistance: E. coli expressing AlbD versus empty vector
# Excerpt: as §2
# [5] = test system: E. coli 25922; experiment: Syn-BNP MIC against E. coli; type: cell-based, Escherichia coli; conditions: E. coli 25922, Gram-negative
# [6] = test system: A. baumannii; experiment: Syn-BNP MIC against ESKAPE pathogens: A. baumannii; type: cell-based, Acinetobacter baumannii; conditions: for MIC: Gram-negative
# Method: as §1
# [7] = test system: E. faecium com15; experiment: Syn-BNP MIC against ESKAPE pathogens: E. faecium; type: cell-based, Enterococcus faecium; conditions: for MIC: E. faecium com15, Gram-positive
# Method: as §1, with “infections. […]” for “infections.”
# [8] = test system: K. pneumoniae 10031; experiment: Syn-BNP MIC against ESKAPE pathogens: K. pneumoniae; type: cell-based, Klebsiella pneumoniae; conditions: for MIC: K. pneumoniae 10031, Gram-negative
# Method: as §1
# [9] = test system: S. aureus SH1000; experiment: Syn-BNP MIC against ESKAPE pathogens: S. aureus; type: cell-based, Staphylococcus aureus; conditions: for MIC: S. aureus SH1000, Gram-positive
# Method: as §1, with “infections. […]” for “infections.”
# [10] = biological target: DNA gyrase (Escherichia coli, UniProt P0AES4+P0AES6); conditions: FIG. 9
# Excerpt: Further studies are focused on an investigation of other mutations via a clinical introduction of this class of antibiotics.
# Sequence of DNA gyrase (P0AES4 whole entry, one chain of several): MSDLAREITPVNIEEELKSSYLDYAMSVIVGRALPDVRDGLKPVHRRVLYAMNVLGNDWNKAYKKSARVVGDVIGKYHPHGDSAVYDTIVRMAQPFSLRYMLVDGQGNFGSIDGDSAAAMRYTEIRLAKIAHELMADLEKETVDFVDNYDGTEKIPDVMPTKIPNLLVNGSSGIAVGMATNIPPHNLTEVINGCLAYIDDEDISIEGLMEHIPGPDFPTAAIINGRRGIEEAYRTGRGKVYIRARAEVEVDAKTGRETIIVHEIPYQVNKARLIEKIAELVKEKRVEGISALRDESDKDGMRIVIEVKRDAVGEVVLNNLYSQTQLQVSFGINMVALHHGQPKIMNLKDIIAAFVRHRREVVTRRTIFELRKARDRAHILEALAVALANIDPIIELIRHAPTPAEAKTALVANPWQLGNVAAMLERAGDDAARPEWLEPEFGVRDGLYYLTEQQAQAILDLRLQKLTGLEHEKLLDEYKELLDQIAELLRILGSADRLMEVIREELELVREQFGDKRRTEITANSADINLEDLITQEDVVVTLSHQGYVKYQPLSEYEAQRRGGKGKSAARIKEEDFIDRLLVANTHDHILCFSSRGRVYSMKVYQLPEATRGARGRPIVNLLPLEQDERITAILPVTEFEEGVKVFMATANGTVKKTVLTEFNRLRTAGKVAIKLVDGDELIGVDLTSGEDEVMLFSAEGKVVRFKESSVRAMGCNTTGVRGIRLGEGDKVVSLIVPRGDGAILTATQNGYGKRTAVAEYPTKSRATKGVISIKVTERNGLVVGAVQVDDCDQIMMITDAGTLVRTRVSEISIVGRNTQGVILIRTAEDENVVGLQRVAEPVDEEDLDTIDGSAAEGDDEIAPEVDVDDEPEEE
Compound,MIC [1],MIC [2],MIC [3],Fold increase in MIC [4],MIC [4],MIC [5],MIC [6],MIC [7],MIC [8],MIC [9],"MIC ([5]; Escherichia coli, read-out: MIC)","MIC ([7]; Enterococcus faecium, read-out: MIC)","MIC ([9]; Staphylococcus aureus, read-out: MIC)",susceptibility to AlbD encoded resistance [4],affinity for DNA gyrase [10],MIC compared with albicidin [6],fold more potent than albicidin ([7]; E. faecium),fold more potent than albicidin ([8]; K. pneumoniae),fold more potent than albicidin ([9]; S. aureus)
"COc1c(NC(=O)c2ccc(NC(=O)c3ccc(NC(=O)[C@H](CC#N)NC(=O)c4ccc(NC(=O)/C(C)=C/c5ccc(O)cc5)cc4)cc3)c(OC)c2O)ccc(C(=O)O)c1O [Albicidin, reference compound]",8 mg/L,1 mg/L,0.0019 mg/L,131 fold,0.25 mg/L,0.015 mg/L,0.125 mg/L,2 mg/L,>8 mg/L,0.5 mg/L,,,,,,,,,
"O=C(O)c1cn(C2CC2)c2cc(N3CCNCC3)c(F)cc2c1=O [Ciprofloxacin, reference compound]",,,,,,,,,,,0.0075 mg/L,0.5 mg/L,0.5 mg/L,,,,,,
COc1c(NC(=O)c2ccc(NC(=O)[C@H](CC#N)NC(=O)c3ccc(NC(=O)/C(C)=C/c4ccc(O)cc4)cc3)c(OC)c2O)ccc(C(=O)Nc2ccc(C(=O)O)cc2)c1O [PABA34],2 mg/L,2 mg/L,0.0075 mg/L,4 fold,0.03 mg/L,,2 mg/L,>8 mg/L,>8 mg/L,>8 mg/L,,,,resistant to proteolytic cleavage by AlbD; also recorded: not susceptible to AlbD encoded resistance,retained a high affinity for DNA gyrase,,,,
CO[C@@H](C(N)=O)[C@H](NC(=O)c1ccc(NC(=O)[C@@H](N)Cc2ccccc2)cc1)C(=O)Nc1ccc(C(=O)Nc2ccc(C(=O)Nc3ccc(C(=O)O)c(O)c3OC(C)C)c(O)c2OC(C)C)cc1 [PABA48],>8 mg/L,>8 mg/L,0.06 mg/L,>133 fold,> 8 mg/L,0.125 mg/L,0.125 mg/L,0.125 mg/L,0.125 mg/L,0.25 mg/L,,,,,,same MIC as albicidin,16 fold,> 64 fold,2 fold
CO[C@@H](C(N)=O)[C@H](NC(=O)c1ccc(NC(=O)[C@@H](N)Cc2ccc(O)cc2)cc1)C(=O)Nc1ccc(C(=O)Nc2ccc(C(=O)Nc3ccc(C(=O)O)cc3)c(O)c2OC(C)C)cc1 [PABA57],>8 mg/L,>8 mg/L,0.5 mg/L,>128 fold,> 64 mg/L,2 mg/L,>8 mg/L,>8 mg/L,1 mg/L,>8 mg/L,,,,,,,,,
CO[C@@H](C(N)=O)[C@H](NC(=O)c1ccc(NC(=O)[C@@H](N)Cc2ccc(O)cc2)cc1)C(=O)Nc1ccc(C(=O)Nc2ccc(C(=O)Nc3ccc(C(=O)O)c(O)c3OC(C)C)c(O)c2OC(C)C)cc1 [PABA70],>8 mg/L,>8 mg/L,0.5 mg/L,>128 fold,> 64 mg/L,2 mg/L,4 mg/L,1 mg/L,1 mg/L,1 mg/L,,,,,,,,,
COc1c(NC(=O)/C(C)=C/c2ccc(O)cc2)ccc(C(=O)N[C@@H](CC#N)C(=O)Nc2ccc(C(=O)Nc3ccc(C(=O)Nc4ccc(C(=O)O)cc4)c(O)c3OC)c(O)c2OC)c1O [PABA95-2],,,0.06 mg/L,8 fold,0.5 mg/L,,,,,,,,,not susceptible to AlbD encoded resistance,,,,,
COc1c(NC(=O)/C(C)=C/c2ccc(O)cc2)ccc(C(=O)N[C@@H](CC#N)C(=O)Nc2ccc(C(=O)Nc3ccc(C(=O)Nc4ccc(C(=O)O)cc4)c(O)c3OC)cc2)c1O [PABA95],8 mg/L,8 mg/L,0.015 mg/L,133 fold,2 mg/L,0.25 mg/L,0.5 mg/L,8 mg/L,>8 mg/L,4 mg/L,,,,,,,,,
